Reference: patent publication US20250353873A1, “COMPOUNDS AND METHODS FOR MODULATING APOE EXPRESSION” (Ionis Pharmaceuticals, Inc., priority 2024, published 2025)
Strand notation (5' to 3'): a small letter for the sugar, then the base; units joined by * are phosphorothioate-linked, units joined directly phosphodiester-linked; [ ] holds rarer units or linkages, { } end groups; capitals alone tell only the bases. [ms] = mesyl phosphoramidate linkage; e = 2'-O-(2-methoxyethyl) (MOE); [5mC] = 5-methylcytosine; d = 2'-deoxy (DNA)

Columns and labels:
human APOE RNA [1] = assay: Activity in APOE C57BL/6NTac-Apoeem7250 knock-in mice, single ICV bolus, 20 weeks (Example 13); format: in vivo; conditions: single ICV bolus 300 μg, 20 weeks post treatment, normalized to mouse Ppia
In short: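 Cortical and spinal cord RNA was assayed by real-time RT-PCR for human APOE, normalized to mouse Ppia and reported as percent of PBS controls. Tissue was taken twenty weeks after one 300 μg intracerebroventricular bolus in APOE knock-in mice, 4 per group.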

human APOE RNA [2] = assay: Activity in APOE 1549 knock-in mice, single ICV bolus, 4 weeks (Example 8); format: in vivo; conditions: n = 2, single ICV bolus of 300 μg, four weeks post treatment, Table 18
Protocol: Modified oligonucleotides described above were tested in the 1549 APOE knock-in mouse model described above.
APOE knock-in mice were divided into groups of either 2 or 6 mice each as described in the tables below. Each mouse received a single intracerebroventricular (ICV) bolus of 300 μg of modified oligonucleotide. A group of either 3 or 6 mice received a single ICV bolus with PBS as a negative control.
Four weeks post treatment, mice were sacrificed and RNA was extracted from cortical brain tissue and spinal cord for quantitative real-time RT-PCR analysis of RNA expression of APOE using primer probe set RTS3073 (described herein above). APOE RNA levels were normalized to mouse Ppia. Mouse Ppia was amplified using primer probe set m_cyclo24 (described herein above). Results are presented as percent human APOE RNA relative to the amount of human APOE RNA in PBS treated animals, (% control). Each experiment is identified in separate tables below.

human APOE RNA [3] = assay: Dose-dependent inhibition of human APOE RNA in HepG2 cells, electroporation, 24 hours (Example 6); format: cell-based
In short: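 IC50 derived from APOE RNA levels, given as percent of untreated control after GAPDH normalization (probe sets RTS3073 and RTS104). Oligonucleotides were delivered at multiple concentrations by electroporation into HepG2 cells seeded at 50,000 per well.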

Substance | APOE RNA (% control) Cortex (human APOE RNA [1]) [% control] | APOE RNA (% control) Spinal Cord (human APOE RNA [1]) [% control] | APOE RNA (% control) Cortex (human APOE RNA [2]) [% control] | APOE RNA (% control) Spinal Cord (human APOE RNA [2]) [% control] | IC50 (human APOE RNA [3]) [µM] | APOE RNA (% UTC) (human APOE RNA [3]; 5 nM) | APOE RNA (% UTC) (human APOE RNA [3]; 13 nM) | APOE RNA (% UTC) (human APOE RNA [3]; 33 nM) | APOE RNA (% UTC) (human APOE RNA [3]; 82 nM) | APOE RNA (% UTC) (human APOE RNA [3]; 205 nM) | APOE RNA (% UTC) (human APOE RNA [3]; 512 nM) | APOE RNA (% UTC) (human APOE RNA [3]; 1,280 nM) | APOE RNA (% UTC) (human APOE RNA [3]; 3,200 nM) | APOE RNA (% UTC) (human APOE RNA [3]; 8,000 nM) | APOE RNA (% UTC) (human APOE RNA [3]; 20,000 nM)
1736524: 6-10-4 MOE gapmer CTTGGTGAATCTTTATTAAA, linkages sssooozzssssssssoss (e[5mC]*eT*eT*eGeGeTdG[ms]dA[ms]dA*dT*d[5mC]*dT*dT*dT*dA*dT*eTeA*eA*eA) [compound 1736524] | 67 | 62 | 36 | 31 | 1.09 | 97 | 101 | 89 | 91 | 66 | 66 | 39 | 34 | 28 | 17
1736525: 6-10-4 MOE gapmer CTTGGTGAATCTTTATTAAA, linkages sooosszzsssssssssss (e[5mC]*eTeTeGeG*eT*dG[ms]dA[ms]dA*dT*d[5mC]*dT*dT*dT*dA*dT*eT*eA*eA*eA) [compound 1736525] | 71 | 118 | 35 | 41 | 1.28 | 101 | 100 | 106 | 113 | 70 | 69 | 37 | 42 | 22 | 7
1736526: 6-10-4 MOE gapmer CTTGGTGAATCTTTATTAAA, linkages ssoooszzsssssssssss (e[5mC]*eT*eTeGeGeT*dG[ms]dA[ms]dA*dT*d[5mC]*dT*dT*dT*dA*dT*eT*eA*eA*eA) [compound 1736526] | 67 | 68 | 35 | 42 | 1.15 | 89 | 114 | 100 | 85 | 71 | 51 | 58 | 28 | 25 | 18
1736527: 6-10-4 MOE gapmer CTTGGTGAATCTTTATTAAA, linkages sssooozzsssssssssss (e[5mC]*eT*eT*eGeGeTdG[ms]dA[ms]dA*dT*d[5mC]*dT*dT*dT*dA*dT*eT*eA*eA*eA) [compound 1736527] | 64 | 58 | 37 | 54 | 1.58 | 104 | 108 | 96 | 97 | 92 | 63 | 37 | 37 | 34 | 23
